Data as given in publication PMC5881522, “Molecular Defects in Cardiac Myofilament Ca^2+-Regulation Due to Cardiomyopathy-Linked Mutations Can Be Reversed by Small Molecules Binding to Troponin” (Frontiers in Physiology, 2018).
“Also recorded” adds a separate entry of the source.

Assays:
Hsp90 = system: Hsp90; set-up: method as in Khandelwal et al., 2013; details: ref Khandelwal et al., 2013; read-out: EC50 Hsp90 inhibition assay; cited from earlier work
[1] = target: T1, tropomyosin E180G mutant-containing thin filaments (Homo sapiens, UniProt P19429+P45379+P63316); assay: Single [Ca2+] in vitro motility assay screen for re-coupling; type: biochemical; details: for Coupling Difference (Initial Screen E180G): 100 μM compound, difference between motility (%) in phosphorylated and unphosphorylated thin filaments, TPM1 E180G, >10% = re-coupling; for Coupling Difference (Initial Screen E180G) / re-coupling activity (in words): 0.037 μM Ca2+; for re-coupling activity (in words): E180G thin filaments
T1 construct: isolate troponin from 100 mg of donor heart tissue; from tissue; host or cells: troponin: human donor heart; tropomyosin: baculovirus/Sf9 (gift); actin: rabbit fast-twitch skeletal muscle
Description: (§1) Thin filaments were reconstituted with 10 nM rabbit skeletal or mouse cardiac muscle α-actin (labeled with TRITC phalloidin), tropomyosin (40–60 nM), and troponin (60 nM) to study Ca^2+-regulation of filament motility by the quantitative in vitro motility assay (IVMA) (Fraser and Marston, [1995]; Messer et al., [2007]). Thin filament movement over a bed of immobilized rabbit fast skeletal muscle heavy meromyosin (100 μg/ml) was compared in paired motility cells, in which troponin varied by a single factor (mutation, phosphorylation state, or treatment with drug). The temperature was set to 29°C. Filament movement was recorded and analyzed as previously described (Marston et al., [1996]), yielding two parameters, the fraction of filaments moving and the speed of moving filaments. Only the fraction of filaments motile is used in this study.
For drug screening, motility was measured with paired phosphorylated and unphosphorylated tropomyosin E180G mutant-containing thin filaments at a fixed 0.037 μM Ca^2+. Most assays were single measurements.
For the rapid screening of compounds, we devised a single Ca^2+ concentration assay. This is illustrated in Figures 2A,B for quercetin. The test system contains skeletal muscle actin, human sequence recombinant tropomyosin 1.1 containing the E180G HCM-associated mutation and human cardiac troponin from donor hearts in the phosphorylated and unphosphorylated form. At 0.037 μM Ca^2+ the filaments are about 40% motile irrespective of phosphorylation level whilst when quercetin is added the phosphorylated Ca^2+ activity curve shifts to the right and % motility at 0.037 μM Ca^2+ drops, whilst the unphosphorylated level is unchanged. We have set a difference between phosphorylated and unphosphorylated >10% as indicating re-coupling activity. This assay method can also be used to construct a dose-response curve as shown. We investigated compounds in 4 categories.
Figure 2 Single [Ca^2+] screen for re-coupling compounds. […] Solid lines, phosphorylated state; dotted lines, unphosphorylated state. Purple lines and points, E180G thin filaments; green lines and points, E180G thin filaments + Quercetin (B) Dose -response curve for quercetin recoupling activity measured at a constant concentration of 0.037 μM Ca^2+. INSET, kinetic analysis of dose response curve; difference between phosphorylated and unphosphorylated states is plotted against quercetin concentration. The Hill equation is fitted to the data, EC50 = 8 μM. (C,D) The effect of 100 μM drug treatment on the difference between % of motility of phosphorylated and unphosphorylated tropomyosin E180G mutant-containing thin filaments at 0.037 μM Ca^2+. (C) EGCG-related molecules (for structures 1–28 see Figure S1 and Table 1). (D) Silybin, related compounds and other HsP90 inhibitors and Ca^2+ desensitizers. The threshold for positive re-coupling was set at a 10% difference (dotted line).

[2] = system: isolated cardiomyocytes from ACTC E99K HCM transgenic mice; assay: Lusitropic effect of dobutamine in isolated cardiomyocytes; type: cell-based; details: blunted in ACTC E99K mouse cardiomyocytes; preliminary experiments
Description: The main effect of uncoupling of the modulation of Ca^2+ sensitivity by TnI phosphorylation is the loss of the lusitropic response to beta adrenergic stimulation, which is usually accompanied by blunting of the whole physiological adrenergic response.

[3] = target: T2, thin filaments containing E180G tropomyosin (TPM1 E180G, HCM) (Homo sapiens, UniProt P19429+P45379+P63316); assay: IVMA Ca2+-activation curves, TPM1 E180G; type: biochemical; details: phosphorylated and unphosphorylated E180G tropomyosin thin filaments, 25 μM for Quercetin and ECG
T2 construct: isolate troponin from 100 mg of donor heart tissue; from tissue; host or cells: troponin: human donor heart; tropomyosin: baculovirus/Sf9 (gift); actin: rabbit fast-twitch skeletal muscle
Text: (§2) Recombinant human sequence tropomyosin was a gift from Kristen Nowak and Elyshia MacNamara, University, Western Australia. Wild-type α-tropomyosin (Tpm1.1) and mutant E180G tropomyosin were expressed in a baculovirus/Sf9 system (Akkari et al., [2002]; Marston et al., [2013]). Skeletal muscle F-actin and myosin were isolated from rabbit fast-twitch skeletal muscle as previously described (Messer et al., [2007]). TnC G159D mutant troponin was extracted from a mutant human heart sample (Dyer et al., [2009]), E99K mutant cardiac actin was extracted from the E99K transgenic mouse heart (Song et al., [2013]).
as §1
The fraction motile was measured over a range of Ca^2+ concentrations to generate Ca^2+-activation curves. The data were fitted to the 4-variable Hill equation to yield a value for EC50 and nH. Most assays of the effect of compounds are single measurements. […]

[4] = target: T3, thin filaments containing TnC G159D (TNNC1 G159D, DCM) (Homo sapiens, UniProt P19429+P45379+P63316, G159D); assay: IVMA Ca2+-activation curves, TNNC1 G159D; type: biochemical; details: phosphorylated and unphosphorylated TnC G159D thin filaments
T3 construct: TnC G159D mutant troponin was extracted from a mutant human heart sample; from tissue; host or cells: mutant human heart sample (troponin); rabbit skeletal muscle (actin)
Text: as §2
Thin filaments were reconstituted with 10 nM rabbit skeletal or mouse cardiac muscle α-actin (labeled with TRITC phalloidin), tropomyosin (40–60 nM), and troponin (60 nM) to study Ca^2+-regulation of filament motility by the quantitative in vitro motility assay (IVMA) (Fraser and Marston, [1995]; Messer et al., [2007]). […] Filament movement was recorded and analyzed as previously described (Marston et al., [1996]), yielding two parameters, the fraction of filaments moving and the speed of moving filaments. […]
The fraction motile was measured over a range of Ca^2+ concentrations to generate Ca^2+-activation curves. […]

[5] = dose-response of % motility difference at 0.037 μM Ca2+, Hill fit

Row | Coupling Difference (Initial Screen E180G) [1] | re-coupling activity (in words) [1] | SMILES | also measured
1 | 27.0% | effective re-couplers | COc1cccc(-c2cc(C(=O)OC3COc4cc(O)cc(O)c4C3)ccc2OC)c1 (stereo not drawn) [compound 2] | EC50 (Hsp90): 22 µM; EC50 [1, 5]: 30 µM
2 | 12.0% |  | COc1cc(C2Oc3cc([C@H]4Oc5cc(O)cc(O)c5C(=O)[C@@H]4O)ccc3OC2CO)ccc1O (stereo partly drawn) [Silybin] | EC50 [1, 5]: 47 µM
3 | 6.0% | inactive | CCOc1cccc(C(=O)OC2COc3cc(OC)cc(OC)c3C2)c1 (stereo not drawn) [compound 16] | EC50 (Hsp90): 8 µM; EC50 [1, 5]: 31 µM
4 | 50% | effective re-couplers | NCCCCCCNS(=O)(=O)c1cccc2c(Cl)cccc12 [W-7] | 
5 | 20.0% |  | COc1ccc(C(=O)OC2COc3cccc(O)c3C2)cc1 (stereo not drawn) [compound 9] | EC50 (Hsp90): > 100 µM; EC50 [1, 5]: 35 µM
6 | 63% | effective re-couplers | Oc1ccc(/C=C/c2cc(O)cc(O)c2)cc1 [Resveratrol] | lusitropic effect of dobutamine, in words [2]: restored
7 | −11.0% | reverse effect | COc1ccc(C(=O)OC2COc3cc(OC)cc(OC)c3C2)cc1 (stereo not drawn) [compound 7] | EC50 (Hsp90): 32 µM; EC50 [1, 5]: 67 µM
8 | 69% |  | Oc1cc(O)c2c(c1)O[C@H](c1ccc(O)c(O)c1)[C@H](O)C2 [Epicatechin] | 
9 | 24.0% | re-coupler | COc1cc(OC)cc(C(=O)OC2COc3cc(OC)cc(OC)c3C2)c1 (stereo not drawn) [compound 19] | EC50 (Hsp90): 21 µM
10 | 0% | do not re-couple | COC(=O)N1CCN(Cc2cccc(NC(=O)Nc3ccc(C)nc3)c2F)CC1 [Omecamtiv Mecarbil] | 
11 | 8% |  | O=C(O[C@@H]1Cc2c(O)cc(O)cc2O[C@@H]1c1ccc(O)c(O)c1)c1cc(O)c(O)c(O)c1 [Epicatechin Gallate] | effect on Ca2+-activation curves (desensitizer / re-coupler), in words ([3]; listed as ECG): pure desensitizer; also recorded: desensitizer but not a recoupler
12 | 30% |  | COc1ccc(-c2coc3cc(O[C@@H]4O[C@H](CO)[C@@H](O)[C@H](O)[C@H]4O)cc(O)c3c2=O)cc1 [Sissotrin] | 
13 | 27.0% |  | COc1cccc(C(=O)OC2COc3cccc(O)c3C2)c1 (stereo not drawn) [compound 4] | EC50 (Hsp90): > 100 µM; EC50 [1, 5]: 34 µM
14 | 60% |  | O=C1c2c(O)cc(O)cc2OC(c2ccc(O)c(O)c2)C1O (stereo not drawn) [Taxifolin] | 
15 | 50% | effective re-couplers | COc1cc(/C=C/c2ccc(O)cc2)cc(OC)c1 [Pterostilbene] | 
16 | 46% |  | CO[C@@H]1[C@@H](OC(N)=O)[C@@H](O)[C@H](Oc2ccc3c(O)c(NC(=O)c4ccc(O)c(CC=C(C)C)c4)c(=O)oc3c2C)OC1(C)C [Novobiocin] | 
17 | 3% | poor recoupling molecule | COc1cc([C@H]2Oc3cc(-c4oc5cc(O)cc(O)c5c(=O)c4O)ccc3O[C@@H]2CO)ccc1O [Dehydrosilybin A, 2,3-dehydrosilybin A] | effect on Ca2+-activation curves (desensitizer / re-coupler), in words [3]: ineﬀective
18 | 35% |  | COc1cc([C@@H]2Oc3c(O)cc([C@H]4Oc5cc(O)cc(O)c5C(=O)[C@@H]4O)cc3[C@H]2CO)ccc1O [Silychristin] | 
19 | 20% |  | COc1cc([C@@H]2[C@H]3CO[C@@]4(O)C(=O)[C@@H]2C=C([C@H]2Oc5cc(O)cc(O)c5C(=O)[C@@H]2O)[C@@H]34)ccc1O [Silydianin] | 
20 | 4% |  | COc1cc(C2Oc3ccc([C@H]4Oc5cc(O)cc(O)c5C(=O)[C@@H]4O)cc3OC2CO)ccc1O (stereo partly drawn) [Isosilybin] | 
21 | −1.0% |  | O=C(O[C@H]1COc2cc(O)cc(O)c2C1)c1cccc(O)c1 [compound 12] | EC50 (Hsp90): 63 µM; nH (Table 6-1, E180G + Drug) ([1]; Hill coefficient of dose-response of % motility difference, 0.037 µM Ca2+): No%Eﬀect; EC50 (Table 6-1, E180G + Drug) ([1]; difference between phosphorylated and dephosphorylated TPM1 E180G thin filaments, 0.037 µM Ca2+, Hill fit): No%Eﬀect; E180G EC50 % Motility Difference [1, 5]: No Effect; Magnitute (% difference) ([1]; fitted magnitude of dose-response of % motility difference, 0.037 µM Ca2+): No%Eﬀect
22 | 62% | restores coupling | COc1cc([C@@H]2Oc3cc(-c4oc5cc(O)cc(O)c5c(=O)c4O)ccc3O[C@H]2CO)ccc1O [Dehydrosilybin B, 2,3-dehydrosilybin B] | effect on Ca2+-activation curves (desensitizer / re-coupler), in words [3]: pure recoupling; effect on Ca2+-activation curves (desensitizer / re-coupler), in words ([3]; listed as dehydrosilybin B): recouples; EC50 [1, 5]: 47 µM
23 | 5% | complex dose sensitive | COc1cc([C@H]2Oc3cc([C@H]4Oc5cc(O)cc(O)c5C(=O)[C@@H]4O)ccc3O[C@@H]2CO)ccc1O [Silybin A] | effect on Ca2+-activation curves (desensitizer / re-coupler), in words [4]: pure desensitizer
24 | No Effect | inactive | COc1cc(OC)c2c(c1)OCC(OC(=O)c1ccc(OC(C)=O)c(CC=C(C)C)c1)C2 (stereo not drawn) [compound 8] | EC50 (Hsp90): 38 µM

Row | SMILES | Coupling Difference (Initial Screen E180G) [1] | re-coupling activity (in words) [1] | also measured
25 | Oc1cc(O)c2c(c1)O[C@H](c1cc(O)c(O)c(O)c1)[C@H](O)C2 [Epigallocatechin] | 62% |  | 
26 | O=c1c(O)c(-c2ccc(O)c(O)c2)oc2cc(O)cc(O)c12 [Quercetin] | 51% |  | effect on Ca2+-activation curves (desensitizer / re-coupler), in words [3]: typical pure recoupler; also recorded: pure recoupling; EC50 [1, 5]: 8 µM
27 | Oc1cc(O)c2c(c1)O[C@H](c1cc(O)c(O)c(O)c1)[C@@H](O)C2 [Gallocatechin] | 68% |  | 
